Ten compounds from PubChem BioAssay (NCI) can be followed below.

Among the test systems are SNB-19 CNS; EKVX NSCLC; SK-MEL-5 melanoma; OVCAR-4 ovarian; HOP-92 NSCLC; OVCAR-8 ovarian; UACC-62 melanoma; NCI-H23 lung; M14 melanoma; A549 NSCLC.
What all share (test): NCI-60 cell line screen, 48 h

Each structure is given as a SMILES string.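 Compound exposure: 48 hours, 5 concentrations, 96-well plates. GI50 is the concentration that inhibits growth by half. TGI marks complete inhibition of growth.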 Some results are limits rather than exact numbers.

Consider `CCN1C(=O)N(CC)C2C1NN=c1s/c(=C\c3ccccc3Br)c(=O)n12` (centres undefined), for which the GI50 in the assay on SNB-19 CNS is 0.052 µM; in the assay on EKVX NSCLC, 0.317 µM; in the assay on SK-MEL-5 melanoma it was 31.9 nM; with OVCAR-4 ovarian it was 69 nM; in the assay on HOP-92 NSCLC it was 370 nM; in the assay with OVCAR-8 ovarian, 0.0424 µM. Besides, the GI50 in the assay with UACC-62 melanoma is 0.278 µM; in the assay on NCI-H23 lung it was 55.2 nM; in the assay on M14 melanoma it was 31.8 nM; in the assay on A549 NSCLC it was 0.0408 µM. The TGI with SNB-19 CNS was more than 67.9 µM; in the assay on EKVX NSCLC it was more than 70.7 µM; in the assay on SK-MEL-5 melanoma, 0.133 µM; in the assay with OVCAR-4 ovarian, 63 µM; in the assay on HOP-92 NSCLC it was 44.7 µM; with OVCAR-8 ovarian it was more than 73.5 µM. In addition, the TGI is 20.6 µM in the assay on UACC-62 melanoma, 29.6 µM in the assay with NCI-H23 lung, 13.8 µM in the assay with M14 melanoma and more than 75.3 µM with A549 NSCLC.

On to `CC(C)c1c2[nH]c3ccccc3c2c(C(C)C)c2[nH]c3ccccc3c12`, for which the TGI with SNB-19 CNS, in the assay with EKVX NSCLC, with SK-MEL-5 melanoma, in the assay on OVCAR-4 ovarian, in the assay on HOP-92 NSCLC and with OVCAR-8 ovarian was more than 100 µM throughout. The TGI in the assay on UACC-62 melanoma, in the assay with NCI-H23 lung, in the assay on M14 melanoma and in the assay on A549 NSCLC was more than 100 µM each time.

For `O=C(Nc1cccc(Nc2ncc(Br)c(NCCc3cnc[nH]3)n2)c1)N1CCCC1`, the GI50 was 9.02 µM in the assay on SNB-19 CNS; 6.07 µM in the assay on EKVX NSCLC; 3710 nM in the assay on OVCAR-4 ovarian; 932 nM in the assay with HOP-92 NSCLC; 8.44 µM with OVCAR-8 ovarian; 6.12 µM in the assay with UACC-62 melanoma. The figures for the GI50 in the assay with NCI-H23 lung, with M14 melanoma and with A549 NSCLC were 2980 nM, 6230 nM and 7.56 µM, respectively. Besides, the TGI with SNB-19 CNS is more than 61.4 µM; in the assay with EKVX NSCLC, 38.1 µM; in the assay with SK-MEL-5 melanoma it was 22.1 µM; in the assay on OVCAR-4 ovarian it was 31.1 µM; in the assay on HOP-92 NSCLC it was 7.93 µM; with OVCAR-8 ovarian, 24.8 µM. In addition, the TGI in the assay on UACC-62 melanoma was 22.4 µM; in the assay with NCI-H23 lung it was 21.3 µM; in the assay with M14 melanoma, 21.8 µM; in the assay on A549 NSCLC it was more than 67.1 µM.

For the compound `Cn1cncc1CC1COC(=O)C1C(O)c1ccccc1` (centres undefined), the TGI in the assay on SNB-19 CNS, with EKVX NSCLC, in the assay with SK-MEL-5 melanoma, with OVCAR-4 ovarian, in the assay on HOP-92 NSCLC and in the assay on OVCAR-8 ovarian was more than 100 µM in each case. Also, the TGI in the assay on UACC-62 melanoma, in the assay with NCI-H23 lung, in the assay with M14 melanoma and in the assay on A549 NSCLC was more than 100 µM throughout.

In the case of `COc1cc2nc(NCCCCCNC(=O)c3ccco3)nc(N)c2cc1OC`, the TGI in the assay with SNB-19 CNS was more than 100 µM; with EKVX NSCLC, more than 100 µM; with SK-MEL-5 melanoma, 34.4 µM; in the assay on OVCAR-4 ovarian it was more than 100 µM; with HOP-92 NSCLC it was 42 µM; with OVCAR-8 ovarian it was more than 100 µM. Also, the TGI in the assay on UACC-62 melanoma was 52.6 µM; in the assay with NCI-H23 lung, more than 100 µM; in the assay with M14 melanoma it was 34.8 µM; in the assay with A549 NSCLC, more than 100 µM.

In the case of `N#Cc1ccc(N=Cc2c([O-])ccc3ccccc23)cc1.[C-]#[O+].[C-]#[O+].[Ir]`, the GI50 with SNB-19 CNS is 18.4 µM; in the assay with EKVX NSCLC, 11.5 µM; with SK-MEL-5 melanoma, 13400 nM; with OVCAR-4 ovarian, 3850 nM; in the assay with HOP-92 NSCLC, 3230 nM; in the assay on OVCAR-8 ovarian, 6.03 µM. In addition, the GI50 is 12.2 µM in the assay with UACC-62 melanoma, 10500 nM in the assay with NCI-H23 lung, 5220 nM in the assay with M14 melanoma and 20.8 µM with A549 NSCLC. Further, the TGI in the assay with SNB-19 CNS worked out at 33.2 µM; in the assay with EKVX NSCLC it was 25 µM; with SK-MEL-5 melanoma, 26.2 µM; in the assay on OVCAR-4 ovarian, 17.7 µM; in the assay on HOP-92 NSCLC it was 10.3 µM; in the assay on OVCAR-8 ovarian, 28 µM. For the same compound, the TGI in the assay with UACC-62 melanoma came out at 24.6 µM; in the assay on NCI-H23 lung it was 24.4 µM; in the assay with M14 melanoma, 19 µM; in the assay on A549 NSCLC, 38.1 µM.

As to `CCCCCCCCCCCCCP(=O)(O)NCC(N)=O`, the TGI with SNB-19 CNS, in the assay with EKVX NSCLC, in the assay on SK-MEL-5 melanoma, in the assay with OVCAR-4 ovarian, in the assay on HOP-92 NSCLC and with OVCAR-8 ovarian was more than 100 µM in each case. Also, the TGI with UACC-62 melanoma, with NCI-H23 lung, in the assay with M14 melanoma and with A549 NSCLC was more than 100 µM each time.

As to `CC(C)(C)c1ccc(C(=O)Nc2sc3c(c2C(N)=O)CCC(=O)C3)cc1`, the GI50 is 0.457 µM in the assay on SNB-19 CNS; 1.97 µM with EKVX NSCLC; 1530 nM in the assay with SK-MEL-5 melanoma; 354 nM in the assay with OVCAR-4 ovarian; 1130 nM with HOP-92 NSCLC; 0.831 µM in the assay on OVCAR-8 ovarian. The GI50 in the assay on UACC-62 melanoma was 0.498 µM; in the assay on NCI-H23 lung, 423 nM; with M14 melanoma, 413 nM; in the assay with A549 NSCLC, 0.688 µM. Moreover, the TGI is 1.94 µM in the assay on SNB-19 CNS; 4.82 µM in the assay with EKVX NSCLC; 2.96 µM in the assay with SK-MEL-5 melanoma; 1.27 µM in the assay with OVCAR-4 ovarian; 2.96 µM with HOP-92 NSCLC; 4.85 µM in the assay on OVCAR-8 ovarian. The TGI with UACC-62 melanoma amounted to 2.01 µM; in the assay on NCI-H23 lung, 1.86 µM; in the assay with M14 melanoma it was 1.57 µM; in the assay on A549 NSCLC it was 3.28 µM.

Take `CC1(C)CCC[C@]2(C)[C@@H](C=O)C(C=O)=CC[C@@H]12`: the TGI in the assay on SNB-19 CNS is 77.4 µM; in the assay with EKVX NSCLC, more than 100 µM; in the assay on SK-MEL-5 melanoma, 29 µM; in the assay on OVCAR-4 ovarian, 44.9 µM; in the assay on HOP-92 NSCLC, 53 µM; with OVCAR-8 ovarian it was 31.2 µM. Also, the TGI is 34.7 µM in the assay with UACC-62 melanoma, 69.5 µM in the assay on NCI-H23 lung, 33.7 µM in the assay with M14 melanoma and more than 100 µM with A549 NSCLC.

Turning to `COC(CN1C=C(Sc2ccccc2)CC1)OC`, the TGI in the assay with SNB-19 CNS was more than 100 µM; in the assay with EKVX NSCLC, more than 100 µM; in the assay on SK-MEL-5 melanoma, 34.7 µM; in the assay on OVCAR-4 ovarian, more than 100 µM; in the assay on HOP-92 NSCLC, 86.5 µM; with OVCAR-8 ovarian, 86.9 µM. Moreover, the TGI with UACC-62 melanoma was more than 100 µM; with NCI-H23 lung it was 69.7 µM; in the assay on M14 melanoma it was more than 100 µM; with A549 NSCLC, more than 100 µM.
